What was measured:
Type in all cases: in vivo
[1] = tested on: galium (catchweed bedstraw, Galium aparine); assay: Test A greenhouse herbicide test, postemergence
In short: (§1)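 Pot-grown plants (loam soil/sand blend), 2–10 cm tall at the one- to two-leaf stage, received postemergence sprays of formulated test chemical. After about 10 d in the greenhouse, injury was rated visually against untreated controls on a 0 (no effect) to 100 (complete control) scale.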

[2] = tested on: blackgrass (Alopecurus myosuroides); assay: Test A greenhouse herbicide test, postemergence; conditions: for Plant response rating, Blackgrass: 125 g ai/ha, 0 to 100 scale where 0 is no effect and 100 is complete control; for Blackgrass plant response rating: 500 g ai/ha, 0 to 100 scale, 0 is no effect, 100 is complete control
In short: as §1

[3] = tested on: wheat (Triticum aestivum); assay: Test A greenhouse herbicide test, pre- and postemergence; conditions: Postemergence
In short: (§2)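 Seeds in loam–sand blend received a preemergence directed soil spray; plants at 2–10 cm, one- to two-leaf stage, received postemergence sprays. Compounds in a non-phytotoxic solvent with surfactant. After about 10 d in a greenhouse, injury rated visually versus untreated controls on a 0–100 scale (100 = complete control).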

[4] = tested on: ryegrass, Italian (Italian ryegrass, Lolium multiflorum); assay: as above
In short: as §2

[5] = tested on: pigweed (Amaranthus retroflexus); assay: as above
In short: as §2

[6] = tested on: morningglory (Ipomoea coccinea); assay: Test C greenhouse herbicide test, pre- and postemergence
In short: (§3)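 Pre- and postemergence greenhouse screen; values are visual control ratings, 0 meaning no effect and 100 complete kill, assigned relative to untreated plants after 13 to 15 d.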

[7] = tested on: oilseed rape (Brassica napus); assay: as above
In short: as §3

[8] = tested on: waterhemp (common waterhemp, Amaranthus rudis); assay: as above
In short: as §3

[9] = tested on: lambsquarters (Chenopodium album); assay: as above
In short: as §3

[10] = tested on: ragweed (common ragweed, Ambrosia elatior); assay: as above
In short: as §3

[11] = tested on: pigweed (Amaranthus retroflexus); assay: as above
In short: as §3

[12] = 125 g ai/ha, 0 to 100 scale where 0 is no effect and 100 is complete control
[13] = 500 g ai/ha, visual rating after approx. 10 d, 0 to 100 scale (0 no effect, 100 complete control)
[14] = Postemergence, 125 g ai/ha, 0 to 100 scale where 0 is no effect and 100 is complete control
[15] = Postemergence, 500 g ai/ha, visual rating after approx. 10 d, 0 to 100 scale (0 no effect, 100 complete control)
[16] = Preemergence, 125 g ai/ha, 0 to 100 scale where 0 is no effect and 100 is complete control
[17] = Preemergence, 500 g ai/ha, 0 to 100 scale where 0 is no effect and 100 is complete control
[18] = Postemergence, 125 g ai/ha, scale 0 to 100, 0 is no effect, 100 is complete control
[19] = Postemergence, 250 g ai/ha, scale 0 to 100, 0 no effect, 100 complete control, 13 to 15 d
[20] = Preemergence, 31 g ai/ha, scale 0 to 100, 0 is no effect, 100 is complete control
[21] = Preemergence, 62 g ai/ha, scale 0 to 100, 0 is no effect, 100 is complete control
[22] = Preemergence, 125 g ai/ha, scale 0 to 100, 0 is no effect, 100 is complete control
[23] = Preemergence, 250 g ai/ha, scale 0 to 100, 0 no effect, 100 complete control
[24] = postemergence, 62 g ai/ha, scale 0 to 100, 0 no effect, 100 complete control

COC(=O)Oc1cnn(C)c(=O)c1-c1c(C)sc2ccccc12 [Compound 97]
25: Plant response rating, Morningglory [6, 20] | Lambsquarters plant response rating [9, 23] | Plant response rating, Ragweed [10, 18]
90: Plant response rating, Blackgrass [2] | Blackgrass plant response rating [2] | Plant response rating, Pigweed [5, 14]
5: Plant response rating, Waterhemp [8, 18] | Waterhemp plant response rating [8, 24] | Plant response rating, Pigweed [11, 20]
50: Plant response rating, Lambsquarters [9, 18] | Pigweed plant response rating [11, 24]
20: Plant response rating, Wheat [3, 12] | Plant response rating, Morningglory [6, 22] | Waterhemp plant response rating [8, 23] | Plant response rating, Lambsquarters [9, 22] | Lambsquarters plant response rating [9, 24]
75: Plant response rating, Pigweed [11, 19]
80: Plant response rating, Wheat [3, 13]
65: Plant response rating, Pigweed [11, 22] | Pigweed plant response rating [11, 23]
40: Morningglory plant response rating [6, 24]
100: Plant response rating, Galium [1, 12] | Plant response rating, Galium [1, 13] | Plant response rating, Ryegrass, Italian [4, 14] | Plant response rating, Ryegrass, Italian [4, 15] | Ryegrass, Italian plant response rating [4, 16] | Plant response rating, Ryegrass, Italian [4, 17] | Plant response rating, Pigweed [5, 15] | Pigweed plant response rating [5, 16] | Plant response rating, Pigweed [5, 17]
60: Plant response rating, Lambsquarters [9, 19] | Plant response rating, Pigweed [11, 18]
10: Plant response rating, Waterhemp [8, 19] | Plant response rating, Waterhemp [8, 21] | Plant response rating, Waterhemp [8, 22] | Ragweed plant response rating [10, 23] | Ragweed plant response rating [10, 24]
35: Plant response rating, Oilseed Rape [7, 19] | Plant response rating, Ragweed [10, 19] | Plant response rating, Pigweed [11, 21]
0: Plant response rating, Oilseed Rape [7, 18] | Plant response rating, Oilseed Rape [7, 20] | Plant response rating, Oilseed Rape [7, 21] | Plant response rating, Oilseed Rape [7, 22] | Oilseed Rape plant response rating [7, 23] | Oilseed Rape plant response rating [7, 24] | Plant response rating, Waterhemp [8, 20] | Plant response rating, Lambsquarters [9, 20] | Plant response rating, Lambsquarters [9, 21] | Plant response rating, Ragweed [10, 20] | Plant response rating, Ragweed [10, 21] | Plant response rating, Ragweed [10, 22]
30: Plant response rating, Morningglory [6, 18] | Plant response rating, Morningglory [6, 19] | Plant response rating, Morningglory [6, 21] | Morningglory plant response rating [6, 23]

CC(=O)Oc1c(C)nn(C)c(=O)c1-c1c(C)cc(C)c2ccccc12 [Compound 99]
25: Plant response rating, Lambsquarters [9, 20]
70: Plant response rating, Pigweed [5, 14] | Plant response rating, Ragweed [10, 20]
60: Plant response rating, Blackgrass [2] | Plant response rating, Oilseed Rape [7, 18]
85: Plant response rating, Morningglory [6, 21] | Plant response rating, Waterhemp [8, 20] | Plant response rating, Lambsquarters [9, 18]
95: Morningglory plant response rating [6, 23] | Morningglory plant response rating [6, 24] | Plant response rating, Waterhemp [8, 18] | Lambsquarters plant response rating [9, 23] | Plant response rating, Ragweed [10, 18] | Plant response rating, Ragweed [10, 22] | Ragweed plant response rating [10, 23] | Plant response rating, Pigweed [11, 19] | Plant response rating, Pigweed [11, 20]
30: Plant response rating, Wheat [3, 13]
100: Plant response rating, Galium [1, 12] | Plant response rating, Galium [1, 13] | Plant response rating, Ryegrass, Italian [4, 14] | Plant response rating, Ryegrass, Italian [4, 15] | Ryegrass, Italian plant response rating [4, 16] | Plant response rating, Ryegrass, Italian [4, 17] | Pigweed plant response rating [5, 16] | Plant response rating, Pigweed [5, 17] | Plant response rating, Morningglory [6, 18] | Plant response rating, Morningglory [6, 19] | Plant response rating, Waterhemp [8, 21] | Waterhemp plant response rating [8, 23] | Plant response rating, Lambsquarters [9, 22] | Plant response rating, Ragweed [10, 19] | Plant response rating, Pigweed [11, 21] | Plant response rating, Pigweed [11, 22] | Pigweed plant response rating [11, 23]
80: Blackgrass plant response rating [2] | Plant response rating, Morningglory [6, 20] | Plant response rating, Lambsquarters [9, 21]
75: Waterhemp plant response rating [8, 24] | Lambsquarters plant response rating [9, 24] | Pigweed plant response rating [11, 24]
40: Plant response rating, Oilseed Rape [7, 21]
5: Oilseed Rape plant response rating [7, 24]
55: Plant response rating, Oilseed Rape [7, 19]
0: Plant response rating, Oilseed Rape [7, 20]
20: Plant response rating, Wheat [3, 12]
98: Oilseed Rape plant response rating [7, 23] | Plant response rating, Waterhemp [8, 19] | Plant response rating, Waterhemp [8, 22] | Plant response rating, Lambsquarters [9, 19] | Plant response rating, Pigweed [11, 18]
90: Plant response rating, Pigweed [5, 15] | Plant response rating, Morningglory [6, 22] | Plant response rating, Oilseed Rape [7, 22] | Plant response rating, Ragweed [10, 21] | Ragweed plant response rating [10, 24]
